Measured values: patent publication US20250283885A1, “MODULAR BIOSENSOR FOR RECEPTOR TYROSINE KINASE ACTIVITY” (The Trustees of Princeton University, priority 2024, published 2025)

Legend:
EGFR R84K or A265V = assay: pYtag response of GBM-associated mutant EGFRs in NIH 3T3 cells; type: cell-based, mouse; details: 20 ng/ml, NIH 3T3 cells expressing R84K or A265V EGFR
Excerpt: To validate the prediction of our model, the dimerization affinity of EGFR was experimentally altered and signaling responses were monitored using pYtags. One can turn to glioblastoma multiform (GBM)-associated mutations in the extracellular domain of EGFR (R84K and A265V point mutations), which were previously shown to increase the dimerization affinity of EREG- and EPGN-bound receptors. These GBM-associated mutations were first modeled in EGFR by decreasing β and γ by 6-fold and 650-fold, respectively. […] NIH 3T3 cell lines expressing pYtag biosensors of EGFR variants harboring either the R84K or A265V mutation were then generated.
The data reveal ligand-dependent EGFR signaling dynamics at unprecedented temporal resolution and point to the dimerization affinity of ligand-bound receptors as a key parameter that governs these responses. More broadly, combining pYtags with mathematical modeling can shed mechanistic insight into the signaling dynamics of RTKs.

EGFR = EGFR (Homo sapiens, UniProt P00533); assay: EGFR pYtag live-cell imaging: clearance of cytosolic ZtSH2 in NIH 3T3 cells
Excerpt: Six ITAMs from the CD3γ, CD3δ, CD3ε, and CD3ζ chains of the TCR. In each case, three identical repeats of the ITAM were fused to the C-terminal tail of EGFR followed by the FusionRed fluorescent protein (EGFR-ITAM-FusionRed). Each receptor was the co-expressed with an iRFP-labeled ZtSH2 (iRFP-ZtSH2) in NIH 3T3 fibroblasts, which express negligible levels of EGFR. […] Because ZtSH2 can in principle be recruited rapidly on and off the membrane and may localize to distinct subcellular compartments, it was reasoned that pYtags could be used to monitor the subcellular activity of an RTK in individual cells over time.

EGFR and Erk signaling = assay: EGFR pYtag and ErkKTR in MCF10A clusters on soft substrata; type: cell-based, human
Experimental: At the tissue scale, the spatiotemporal distribution of RTK signaling can also be regulated by several processes including paracrine signaling, morphogen gradients, and the mechanical properties of the local microenvironment. It was therefore asked whether pYtags could be used to monitor RTK signaling in multicellular contexts.
To prepare polyacrylamide substrata, 1.5-mm-thick glass coverslips were pre-treated with glutaraldehyde. First, coverslips were treated with 0.1 N NaOH for 30 min, followed by rinsing with deionized water and air drying. Coverslips were then treated with 2% aminopropyltrimethoxysilane (Sigma Aldrich) in acetone for 30 min, washed three times with acetone, and left to air dry. Coverslips were treated with 0.5% glutaraldehyde (Sigma Aldrich) in PBS for 30 min, washed with deionized water, and left to air dry. Custom glass-bottom dishes were prepared by replacing the bottoms of 35 mm TCPS dishes with glutaraldehyde-treated coverslips, which were sealed using PDMS (Sigma Aldrich).
To investigate the dynamics of this spatial pattern, EGFR signaling was monitored using two live-cell biosensors: EGFR pYtag and a kinase translocation reporter for downstream signaling through Erk (ErkKTR).

ErbB2 [1] = assay: ErbB2 pYtag (with EGFR-Citrine) in NIH 3T3 cells: clearance of cytosolic ZtSH2; type: cell-based; details: NIH 3T3, required ITAMs on ErbB2 and co-expression of EGFR
Experimental: One advantage of the pYtag approach is its modularity: ITAMs can in principle be fused to the C-termini of many different RTKs and recruit ZtSH2 upon stimulation. Therefore, it was tested whether pYtags could be adapted to monitor the activity of receptors other than EGFR. pYtag biosensors were designed for two additional RTKs: 1) ErbB2, a ligandless member of the ErbB family that signals by heterodimerizing with ligand-bound EGFR; and 2) fibroblast growth factor receptor 1 (FGFR1), a non-ErbB family RTK. ErbB2 is a particularly challenging RTK to study because it can only be activated in conjunction with an additional RTK (e.g., EGFR), so Grb2-based biosensors would be unable to distinguish between the activity of EGFR and ErbB2.
Starting from NIH 3T3 cells expressing iRFP-ZtSH2, cell lines expressing either an ErbB2 pYtag (ErbB2-CD3ε-FusionRed), an FGFR1 pYtag (FGFR1-CD3ε-FusionRed), or ITAM-less variants of each were generated. For the ErbB2 case, cells with EGFR-Citrine were further transduced to express both required components of a functional receptor heterodimer (see FIG. 3, and FIGS. 4A-4B).
The pYtag approach is indeed modular, and this strategy can be readily adapted for monitoring the activation of distinct RTKs in individual cells.

ErbB2 [2] = assay: Multiplexed pYtags in NIH 3T3 cells: ErbB2 reporter (iRFP-ZtSH2; ErbB2-CD3ε-FusionRed); type: cell-based; details: 100 ng/mL
Excerpt: Having characterized an orthogonal pair of pYtags, it was recognized that these biosensors could be used to simultaneously monitor the activation of both EGFR and ErbB2. NIH 3T3 cells that co-expressed pYtags for EGFR (Clover-VISH2; EGFR-SLP76-BFP) and ErbB2 (iRFP-ZtSH2; ErbB2-CD3ε-FusionRed) were generated. […] VISH2 cleared from the cytosol almost immediately (<30 sec), indicating rapid phosphorylation of the EGFR C-terminal tail. […] Although the absolute magnitude of tSH2 biosensor clearance varied between cell lines (likely due to differences in affinity and expression level), the dynamics of EGFR and ErbB2 activation were highly reproducible in all cases, irrespective of the cell line or pYtag.

Row | Substance | pYtag signaling response of GBM-associated mutant EGFR (EGFR R84K or A265V) | pYtag signaling response of WT EGFR (EGFR; 20 ng/ml, NIH 3T3 cells expressing WT EGFR) | EGFR activity dynamics after low-affinity ligand (EGFR; varying doses, NIH 3T3 EGFR pYtag) | Delay in EGFR and Erk signaling between periphery and interior of clusters (EGFR and Erk signaling) [min] | Delay of Erk responses behind EGFR responses (EGFR and Erk signaling) [min] | ZtSH2 response of ErbB2 pYtag-expressing cells (ErbB2 [1]) | Time of ZtSH2 clearance from the cytosol (ErbB2 phosphorylation) (ErbB2 [2]) [min]
1 | EREG: epiregulin, low-affinity EGFR ligand | stronger response that gradually increased over time | transient peak of activation and rapid plateau | rapid rise in EGFR activity followed by a plateau within minutes | – | – | – | –
2 | EGF: epidermal growth factor, high-affinity EGFR ligand (NSDSECPLSHDGYCLHDGVCMYIEALDKYACNCVVGYIGERCQYRDLKWWELR; Epidermal growth factor; UniProt P01133 971-1023, looked up) | – | – | – | 2 to 4 | ~4 | clearance of ZtSH2 from the cytosol | ~3
